According to the CheMixHub viscosity set:

Experiment: xn = mol fraction of the nth substance listed

C[N+](C)(C)CC(=O)O.[Cl-] + O
viscosity [mPa·s], 101 kPa
Conditions	293.15 K	298.15 K	303.15 K	308.15 K	313.15 K	318.15 K
x1 = 0.000448	1.007	0.8948	0.8017	0.7233	0.6568	–
x1 = 0.000896	1.011	0.8992	0.8061	0.7276	0.661	0.6055
x1 = 0.00135	1.016	0.9038	0.8106	0.7321	0.6654	–
x1 = 0.0018	1.02	0.9082	0.815	0.7365	0.6697	0.614
x1 = 0.002247	1.025	0.9126	0.8193	0.7408	0.674	0.6184
x1 = 0.002691	1.029	0.917	0.8237	0.7452	0.6783	0.6227
x1 = 0.003581	1.038	0.9259	0.8324	0.7539	0.687	0.6313
x1 = 0.004484	1.048	0.9348	0.8413	0.7627	0.6956	0.6401
x1 = 0.005363	1.056	0.9435	0.85	0.7712	0.7043	0.6486
x1 = 0.006268	1.066	0.9526	0.859	0.7799	0.713	0.6575
x1 = 0.007163	1.075	0.9616	0.8677	0.789	0.7217	0.6664

[Na+].[O-][Cl+2]([O-])[O-] + O
viscosity [mPa·s], 100 kPa
Conditions	x1 = 0.001798	x1 = 0.003644	x1 = 0.005393	x1 = 0.007261	x1 = 0.008945	x1 = 0.01087	x1 = 0.01261	x1 = 0.01436	x1 = 0.01582	x1 = 0.01761
293.15 K	0.996	1.007	1.017	1.025	1.033	1.042	1.05	1.058	1.067	1.076
298.15 K	0.889	0.897	0.908	0.918	0.926	0.933	0.942	0.949	0.957	0.965
303.15 K	0.801	0.809	0.817	0.827	0.835	0.841	0.849	0.857	0.865	0.873
308.15 K	0.726	0.734	0.742	0.75	0.758	0.765	0.774	0.781	0.788	0.796
313.15 K	0.663	0.67	0.678	0.685	0.693	0.7	0.708	0.716	0.723	0.729
318.15 K	0.609	0.616	0.623	0.631	0.637	0.643	0.65	0.657	0.665	0.672
